Measured values from the PolyMetriX glass transition set.
± gives the standard deviation of the reports.

Assays:
[1] = not given; remark: listed apart in the source
[2] = not given; remark: listed apart in the source

Compound: *CC(*)OCCC (repeat unit) [Poly(propyl vinyl ether)]
- glass transition temperature: -49 °C

Compound: *CC(*)OC(=O)C=Cc1ccccc1 (repeat unit) [poly(vinyl cinnamate)]
- glass transition temperature [1]: 77 °C

Compound: *CC(*)c1ccccc1CC (repeat unit) [Poly(o-ethyl styrene) ]
- glass transition temperature [2]: 102 ± 1.4 °C

Compound: *CC(*)c1ccc(CO)cc1 (repeat unit) [Poly(p-hydroxymethyl styrene) ]
- glass transition temperature [2]: 139 ± 1.4 °C
